Measurements as given in patent publication US9126999B2, “Tetrahydropyrazolopyrimidine compounds” (EISAI R&D MANAGEMENT CO., LTD., priority 2012, dated 2015).
“Also recorded” adds a separate entry of the source.

Experiments:
[1] = tested on: mouse lupus disease models; assay: SLE disease models, summary of findings; format: in vivo; settings: summary over lupus models
Protocol: Male BXSB-Yaa and female NZBWF1/J mice were purchased from Jackson Labs (Bar Harbor, Me.), both of which manifest with spontaneous lupus disease. Female DBA/1 mice were purchased from Harlan Laboratories (Indianapolis, Ind.) and at the indicated ages given an intraperitoneal injection of 0.5 ml pristane (2,6,10,14-Tetramethylpentadecane; Sigma, St. Louis, Mo.) to chemically induce lupus disease or of 0.5 ml PBS to generate age-matched, non-diseased control mice. Mice were dosed daily by oral administration of compound or drug in 0.5% methylcellulose, for the time period indicated.

[2] = tested on: NZBWF1/J mice; assay: NZBxNZW strain lupus disease model; format: in vivo, mouse; settings: NZB/W model; for anti-dsDNA titers: QD PO; for proteinuria: UACR
Protocol: Figure Legend: Female NZBWF1/J mice were received at 6 weeks of age, baseline bleeds were performed, and mice were monitored for disease progression by following anti-dsDNA titers. At 20 weeks of age, mice were randomized into groups with equivalent median anti-dsDNA titers and treated at 23 weeks of age with Vehicle (Veh; 0.5% methyl-cellulose) alone or 33, 100, or 300 mg/kg ER-892887 once-a-day orally (QD PO). All mice were sacrificed at 45 weeks of age (22 weeks total treatment) and blood plasma anti-dsDNA titers were determined by ELISA. (A) Impact of ER-892887 treatment over time on anti-dsDNA titers. (B) Bar graph of +22 weeks treatment data for ER-892887 derived from data shown in (A). (C) Just prior to termination at 45 weeks of age (following 22 weeks of treatment), urine was collected from individual mice, and the Urinary Albumin Creatinine Ratio (UACR, proteinuria) was determined for each animal as an indirect measure of kidney function. (D) Summary of mortality observed in this study. (E) At the time of sacrifice, kidneys were collected from individual mice, fixed in 10% formalin for 24 hours, embedded in paraffin, and H&E stained sections were generated for histopathology assessment in a blinded fashion. Statistical significance was determined by Mann-Whitney test for (C).
Figure Legend. Female NZBWF1/J mice were received at 8 weeks of age, baseline bleeds were performed, and mice were monitored for disease progression by following anti-dsDNA titers. At 24 weeks of age, mice were randomized into groups with equivalent median anti-dsDNA titers and treated at 25 weeks of age QD PO with Vehicle (Veh; 0.5% methyl-cellulose) alone or 33, 100, or 300 mg/kg ER-892887. Anti-dsDNA titers were determined by ELISA on blood plasma samples at the time points indicated. (A) Impact of compound treatment on median anti-dsDNA titers over time up to +17 weeks of treatment. (B) Impact of compound treatment on median anti-dsDNA at the +13 weeks of treatment time point only from data shown in (A). (C) After 13 weeks (top graph) or 17 weeks (bottom graph) of compound treatment, urine was collected from individual mice, and the Urinary Albumin Creatinine Ratio (UACR, proteinuria) was determined for each animal as an indirect measure of kidney function. Mice indicated within the circle with high UACR were those animals that died between the +13 wks and +17 wks of treatment (statistical significance was determined by Mann-Whitney test). (D) Blood urea nitrogen (BUN) measured in the plasma from select groups after 13 weeks of treatment. (E) Mortality curves for Vehicle versus compound treated mice up to 17 weeks of treatment. […] (F) Summary of mortality observed in this study.
Figure Legend: Female NZBWF1/J mice were received at 6 weeks of age, baseline bleeds were performed, and mice were monitored for disease progression by following anti-dsDNA titers. At 24 weeks of age, mice were randomized into groups with equivalent median anti-dsDNA titers and treated with Vehicle (Veh; 0.5% methyl-cellulose) alone or 300 mg/kg ER-885454 once-a-day orally (QD PO). All mice were sacrificed at 47 weeks of age (23 weeks total treatment) and blood plasma anti-dsDNA titers were determined by ELISA (A). (B) Just prior to termination at 47 weeks of age, urine was collected from individual mice, and Urinary Albumin Creatinine Ratio (UACR, proteinuria) was determined for each animal as an indirect measure of kidney function. (C) At the time of sacrifice, kidneys were collected from individual mice, fixed in 10% formalin for 24 hours, embedded in paraffin, and H&E stained sections were generated for histopathology assessment in a blinded fashion. Statistical significance was determined by Mann-Whitney test for (A) above.
Figure Legend: Female NZBWF1/J mice were received at 4 weeks of age, baseline bleeds were performed at 10 and 26 weeks, and mice were monitored for disease progression by following anti-dsDNA titers and proteinuria. […]

SMILES | kidney disease as manifested by proteinuria and histologic changes [1] | production of several autoantibody specificities [1] | histological signs of glomerulonephritis [2] | anti-dsDNA titers [2] | proteinuria [2] | delay of development of proteinuria compared with two drugs commonly used in the treatment of human lupus [2] | efficacy in combination with hydroxychloroquine and prednisolone [2] | survival ([2]; vs. Vehicle, 33-100 mg/kg QD PO, long-term dosing)
COc1ccc([C@@H]2C[C@H](C(F)(F)F)n3nc(-c4ccncc4)cc3N2)cc1OC [ER-885454] | suppressed | limited | reduced | reduced | reduced | – | – | –
COc1ccc([C@@H]2C[C@H](C(F)(F)F)n3nc(-c4ccc(C(=O)N5CCNCC5)cc4)cc3N2)cc1OC [ER-892887, (4-((5S,7R)-5-(3,4-dimethoxyphenyl)-7-(trifluoromethyl)-4,5,6,7-tetrahydropyrazolo[1,5-a]pyrimidin-2-yl)phenyl)(piperazin-1-yl)methanone] | suppressed | limited | reduced | reduced | reduced proteinuria | more effectively | efficacious | statistically significant survival benefit; also recorded: afforded survival benefit; also recorded: significantly enhanced survival
